Data from patent US20120059162A1, “FUSED IMIDAZOLE DERIVATIVE HAVING TTK INHIBITORY ACTION” (Oncotherapy Science, Inc., priority 2009, published 2012).
pIC50: −log10 of the molar value.

What was measured:
TTK = biological target: T1, TTK (Homo sapiens, UniProt P33981); assay: TTK assay: screening of TTK kinase activity suppressing action using p38 MAPK peptide; type: biochemical; details: read-out: TTK IC50
T1 sequence (P33981 1-857): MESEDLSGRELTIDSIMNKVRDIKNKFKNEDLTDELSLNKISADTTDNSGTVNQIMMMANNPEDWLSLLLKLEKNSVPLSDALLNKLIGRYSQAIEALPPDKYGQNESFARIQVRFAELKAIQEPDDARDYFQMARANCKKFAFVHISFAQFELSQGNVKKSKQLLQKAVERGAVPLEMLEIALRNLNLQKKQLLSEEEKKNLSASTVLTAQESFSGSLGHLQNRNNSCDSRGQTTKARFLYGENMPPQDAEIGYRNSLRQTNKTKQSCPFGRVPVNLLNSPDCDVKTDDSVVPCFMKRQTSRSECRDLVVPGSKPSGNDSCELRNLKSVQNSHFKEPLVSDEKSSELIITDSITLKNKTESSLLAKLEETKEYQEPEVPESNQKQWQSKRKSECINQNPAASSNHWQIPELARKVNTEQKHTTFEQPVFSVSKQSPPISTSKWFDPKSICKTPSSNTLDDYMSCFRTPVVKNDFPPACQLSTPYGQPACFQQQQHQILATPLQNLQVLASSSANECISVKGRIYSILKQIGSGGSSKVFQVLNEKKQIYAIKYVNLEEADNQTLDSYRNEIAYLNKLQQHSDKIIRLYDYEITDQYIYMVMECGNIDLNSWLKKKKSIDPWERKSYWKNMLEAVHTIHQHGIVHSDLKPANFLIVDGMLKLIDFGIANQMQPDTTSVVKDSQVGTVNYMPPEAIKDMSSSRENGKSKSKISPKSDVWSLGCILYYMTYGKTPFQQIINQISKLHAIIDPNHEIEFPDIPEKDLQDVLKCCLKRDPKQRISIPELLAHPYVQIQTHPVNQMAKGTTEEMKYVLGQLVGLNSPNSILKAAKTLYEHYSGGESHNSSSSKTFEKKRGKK
Procedure, shortened: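 TTK (4 μg/ml in enzyme solution) mixed with p38 MAPK peptide and ATP (each 60 μM in substrate solution) in Tris-HCl pH 7.5 with MgCl2, DTT, Na3VO4, β-glycerophosphate, BSA. Reaction aliquot captured on NeutrAvidin plate, detected with Eu-labelled anti-mouse IgG by time-resolved fluorescence; inhibition relative to no-compound signal.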

A549 = A549 assay: screening of cancer cell growth inhibiting compound; type: cell-based; details: Homo sapiens; A549 cells; values given as IC50 intervals; read-out: A549 IC50
Procedure, shortened: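 A549 cells (1×10^4/ml) in D-MEM with 10% FBS were pre-incubated one day at 37 °C, then exposed to compound dilutions for three further days. Viable cell number read by WST-8 (1–4 hours), absorbance 450 nm (reference 620 nm); inhibition calculated relative to untreated wells.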

With O=C(NC1CC1)c1ccc(-c2cnc3c(NCC4CCOCC4)cc(OCC45CC6CC(CC(C6)C4)C5)nn23)cc1 [Example 2-190] as the compound, how does the pIC50 (TTK) read?
The pIC50 was 7.79.

And the pIC50 (A549)?
Its pIC50 is 5.00 to 6.00.

With O=C(NC1CC1)c1ccc(-c2cnc3c(NCC4CCOCC4)cc(OC4C5CC6CC(C5)CC4C6)nn23)cc1 (centres unmarked) [Example 2-191] as the compound, how does the pIC50 (TTK) read?
Its pIC50 is 8.41.

What about the pIC50 (A549) of the same compound?
The pIC50 was 6.30 to 7.30.

How did the pIC50 (TTK) turn out when CC1(Oc2cc(NCC3CCOCC3)c3ncc(-c4ccc(C(=O)NC5CC5)cc4)n3n2)CCCC1 [Example 2-192] was run?
Its pIC50 is 8.68.

What about the pIC50 (A549) of the same compound?
Its pIC50 is 6.30 to 7.30.

O=C(NC1CC1)c1ccc(-c2cnc3c(NCC4CCOCC4)cc(OC45CC6CC(CC(C6)C4)C5)nn23)cc1 [Example 2-193] was tested. Which pIC50 (TTK) did it give?
The pIC50 was 8.22.

What about the pIC50 (A549) of the same compound?
Its pIC50 is 6.30 to 7.30.

With N#Cc1ccc(-c2cc(NCC3CCOCC3)c3ncc(-c4ccc(C(=O)NC5CC5)cc4)n3n2)cn1 [Example 2-199] as the compound, how does the pIC50 (TTK) read?
The pIC50 was 8.13.

What about the pIC50 (A549) of the same compound?
Its pIC50 is 6.30 to 7.30.

Cc1cc(C#N)ccc1-c1cc(NCC2CCOCC2)c2ncc(-c3ccc(C(=O)NC4CC4)cc3)n2n1 [Example 2-202] was tested. Which pIC50 (TTK) did it give?
The pIC50 was 8.46.

What about the pIC50 (A549) of the same compound?
The pIC50 was 6.30 to 7.30.

What does the source list for N#Cc1cccc(-c2cc(NCC3CCOCC3)c3ncc(-c4ccc(C(=O)NC5CC5)cc4)n3n2)c1 [Example 2-203]?
pIC50 (TTK): 8.33; pIC50 (A549): 6.30 to 7.30

COc1cc(C#N)ccc1-c1cc(NCC2CCOCC2)c2ncc(-c3ccc(C(=O)NC4CC4)cc3)n2n1 [Example 2-205] was tested. Which pIC50 (TTK) did it give?
Its pIC50 is 8.35.

What about the pIC50 (A549) of the same compound?
Its pIC50 is at least 7.30.

With N#Cc1ccc(-c2cc(NCC3CCOCC3)c3ncc(-c4ccc(C(=O)NC5CC5)cc4)n3n2)c(Cl)c1 [Example 2-206] as the compound, how does the pIC50 (TTK) read?
The pIC50 was 8.55.

And the pIC50 (A549)?
The pIC50 was 6.30 to 7.30.

How did the pIC50 (TTK) turn out when O=C(NC1CC1)c1ccc(-c2cnc3c(NCC4CCOCC4)cc(C=C4CCCCC4)nn23)cc1 [Example 2-207] was run?
The pIC50 was 8.24.

What about the pIC50 (A549) of the same compound?
The pIC50 was 6.00 to 6.30.

Which results are given for O=C(NC1CC1)c1ccc(-c2cnc3c(NCC4CCOCC4)cc(CC4CCCCC4)nn23)cc1 [Example 2-208]?
pIC50 (TTK): 8.15; pIC50 (A549): 6.30 to 7.30

How did the pIC50 (TTK) turn out when O=C(NC1CC1)c1ccc(-c2cnc3c(NCC4CCOCC4)cc(C=C4CCCC4)nn23)cc1 [Example 2-209] was run?
Its pIC50 is 8.09.

What about the pIC50 (A549) of the same compound?
Its pIC50 is 6.30 to 7.30.

How did the pIC50 (TTK) turn out when O=C(NC1CC1)c1ccc(-c2cnc3c(NCC4CCOCC4)cc(CC4CCCC4)nn23)cc1 [Example 2-210] was run?
Its pIC50 is 7.69.

What about the pIC50 (A549) of the same compound?
The pIC50 was 5.00 to 6.00.

Which results are given for O=C(NC1CC1)c1ccc(-c2cnc3c(NCC4CCOCC4)cc(C4=CCNCC4)nn23)cc1 [Example 2-211]?
pIC50 (TTK): 8.08; pIC50 (A549): 6.30 to 7.30

With O=C(NC1CC1)c1ccc(-c2cnc3c(NCC4CCOCC4)cc(C4CCNCC4)nn23)cc1 [Example 2-212] as the compound, how does the pIC50 (TTK) read?
The pIC50 was 7.64.

What about the pIC50 (A549) of the same compound?
Its pIC50 is 5.00 to 6.00.

CC(=O)N1CC=C(c2cc(NCC3CCOCC3)c3ncc(-c4ccc(C(=O)NC5CC5)cc4)n3n2)CC1 [Example 2-213] was tested. Which pIC50 (TTK) did it give?
The pIC50 was 7.92.

What about the pIC50 (A549) of the same compound?
Its pIC50 is 6.30 to 7.30.

How did the pIC50 (TTK) turn out when O=C(NC1CC1)c1ccc(-c2cnc3c(NCC4CCOCC4)c(Cl)c(OC4CCCC4)nn23)cc1 [Example 2-216] was run?
The pIC50 was 8.57.

And the pIC50 (A549)?
The pIC50 was 6.30 to 7.30.

What does the source list for O=C(NC1CC1)c1ccc(-c2cnc3c(NCC4CCOCC4)c(F)c(OC4CCCC4)nn23)cc1 [Example 2-217]?
pIC50 (TTK): 7.86; pIC50 (A549): 5.00 to 6.00

How did the pIC50 (TTK) turn out when O=C(NC1CC1)c1ccc(-c2cnc3c(NCC4CCOCC4)c(Cl)c(NC4CCCC4)nn23)cc1 [Example 2-218] was run?
Its pIC50 is 7.90.

And the pIC50 (A549)?
Its pIC50 is 6.00 to 6.30.

Which results are given for CC(C)(Nc1cc(NCC2CCOCC2)c2ncc(-c3ccc(C(=O)NC4CC4)c(F)c3)n2n1)C(F)(F)F [Example 2-219]?
pIC50 (TTK): 8.37; pIC50 (A549): ≥ 7.30

What does the source list for CC(C)(Nc1cc(NCC2CCOCC2)c2ncc(-c3ccc(C(=O)NC4CC4)c(Cl)c3)n2n1)C(F)(F)F [Example 2-220]?
pIC50 (TTK): 8.41; pIC50 (A549): ≥ 7.30

Nc1cc(C(=O)NC2CC2)ccc1-c1cnc2c(NCC3CCOCC3)cc(NC3CCCC3)nn12 [Example 2-225] was tested. Which pIC50 (TTK) did it give?
Its pIC50 is 8.01.

What about the pIC50 (A549) of the same compound?
Its pIC50 is 6.30 to 7.30.

How did the pIC50 (TTK) turn out when Cc1cc(C(=O)NC2CC2)ccc1-c1cnc2c(NCC3CCOCC3)cc(NC3CCCC3)nn12 [Example 2-226] was run?
Its pIC50 is 8.16.

And the pIC50 (A549)?
Its pIC50 is 6.30 to 7.30.

With O=C(NC1CC1)c1ccc(-c2cnc3c(NCC4CCOCC4)cc(NC4CCCC4)nn23)c(F)c1 [Example 2-227] as the compound, how does the pIC50 (TTK) read?
Its pIC50 is 8.46.

And the pIC50 (A549)?
Its pIC50 is 6.30 to 7.30.

With O=C(NC1CC1)c1ccc(-c2cnc3c(NCC4CCOCC4)cc(NC4CCCC4)nn23)cc1F [Example 2-228] as the compound, how does the pIC50 (TTK) read?
Its pIC50 is 8.44.

And the pIC50 (A549)?
Its pIC50 is 6.30 to 7.30.

With O=C(NC1CC1)c1ccc(-c2cnc3c(NCC4CCOCC4)cc(NC4CCCC4)nn23)cc1O [Example 2-229] as the compound, how does the pIC50 (TTK) read?
The pIC50 was 8.36.

And the pIC50 (A549)?
The pIC50 was 6.30 to 7.30.

What does the source list for O=C(NC1CC1)c1ccc(-c2cnc3c(NCC4CCOCC4)cc(NC4CCCC4)nn23)cc1Cl [Example 2-230]?
pIC50 (TTK): 8.37; pIC50 (A549): ≥ 7.30

With O=C(NC1CC1)c1ccc(-c2cnc3c(NCC4CCOCC4)cc(NC4CCCC4)nn23)c(Cl)c1 [Example 2-231] as the compound, how does the pIC50 (TTK) read?
The pIC50 was 8.24.

And the pIC50 (A549)?
Its pIC50 is 6.30 to 7.30.

How did the pIC50 (TTK) turn out when Cc1cc(-c2cnc3c(NCC4CCOCC4)cc(NC4CCCC4)nn23)ccc1C(=O)NC1CC1 [Example 2-232] was run?
The pIC50 was 8.55.

And the pIC50 (A549)?
The pIC50 was 6.30 to 7.30.

How did the pIC50 (TTK) turn out when COc1cc(-c2cnc3c(NCC4CCOCC4)cc(NC4CCCC4)nn23)ccc1C(=O)NC1CC1 [Example 2-233] was run?
Its pIC50 is 8.24.

What about the pIC50 (A549) of the same compound?
Its pIC50 is 6.00 to 6.30.

O=C(NC1CC1)c1ccc(-c2nnc3c(NCC4CCOCC4)cc(NC4CCCC4)nn23)cc1 [Example 3-3, 4-(6-(Cyclopentylamino)-8-((tetrahydro-2H-pyran-4-yl)methylamino)-[1,2,4]triazolo[4,3-b]pyridazin-3-yl)-N-cyclopropylbenzamide] was tested. Which pIC50 (TTK) did it give?
The pIC50 was 6.84.

And the pIC50 (A549)?
The pIC50 was 5.00 to 6.00.
